Source: BindingDB's records for patent US20250092039 (Tiger Biotherapeutics, 2025)

Biological target: GTPase KRas [G12V]/RAF proto-oncogene serine/threonine-protein kinase (Homo sapiens, UniProt P01116, G12V)
Experiment: KRAS/RAF1 Binding Inhibition Assay
Procedure: The test compounds in 2% DMSO (final concentration) at various concentrations were then added to the reaction mixture and incubated for 60 minutes at 4° C.

IC50 [nM] | Compound
> 200 | CCc1c(F)ccc2cc(O)cc(-c3ncc4c(N5CCCNC(=O)C5)nc(OCC5(CN6CCC(CN7CCN(c8ccc9c(c8)CN([C@H]8CCC(=O)NC8=O)C9=O)CC7)CC6)CC5)nc4c3F)c12 [US20250092039, Compound 95]
≤ 200 | CCc1c(F)ccc2cc(O)cc(-c3ncc4c(N5CCCNC(=O)C5)nc(OCC5(CN6CCC7(CC6)CC(CN6CCN(c8ccc9c(c8)CN([C@H]8CCC(=O)NC8=O)C9=O)CC6)C7)CC5)nc4c3F)c12 [US20250092039, Compound 93]
